In patent US20020035124A1, “Insecticidal and miticidal compositions” (priority 1996, published 2002):

Assays:
[1] = test system: Kanzawa spider mite (Tetranychus kanzawai kishida) which are resistant to chlorfenapyr; test: Miticidal effect against female imagines of chlorfenapyr-resistant Kanzawa spider mite (leaf disk spray test); conditions: for LC50: single test compound, female imago, chlorfenapyr-resistant strain, mortality two days after spray treatment, probit analysis
Description: In this experiment, the miticidal effect against female imagines (adults) of Kanzawa spider mite (Tetranychus kanzawai kishida) which are resistant to chlorfenapyr is evaluated.
Round leaf disks (2 cm diameter) are cut out of a first leaf of kidney bean by a leaf punch and 4 sheets of the disks are placed on wet sanitary cotton in a plastic cup (8 cm diameter). On each leaf disk, 4 female imagines of Kanzawa spider mite (Tetranychus kanzawai kishida) which had acquired a strong resistance to chlorfenapyr are inoculated.
Each plastic cup is sprayed with 3.5 ml of a test solution with a rotary spray tower (Mizuho Scientific Co., Ltd.) and stored in a constant temperature chamber held at 25±1° C. (32 individuals are tested per concentration, 4-5 concentrations are evaluated per formulation and 2 performances are repeated). […] [formula] […]
The tested mite was a female image of the chlorfenapyr-resistant strain of Kanzawa spider mite which was obtained by a long artificial selection procedure against chlorfenapyr in a laboratory on a colony of Kanzawa spider mite which had been collected in the field.

[2] = test system: susceptible strain of spider mite; test: LC50 against a susceptible strain of spider mite; format: in vivo

| SMILES | LC50 [1] [ppm] | resistance to chlorfenapyr of the resistant strain versus susceptible strain ([1]; LC50 resistant strain relative to susceptible strain) [fold] | LC50 [2] |
| --- | --- | --- | --- |
| CCC(C)c1ccccc1OC(=O)NC (centres unmarked) [BPMC, 2-sec-Butylphenyl-N-methylcarbamate] | 3200 | – | – |
| CCOCn1c(-c2ccc(Cl)cc2)c(C#N)c(Br)c1C(F)(F)F [Chlorfenapyr, 4-Bromo-2-(4-chlorophenyl)-1-(ethoxymethyl)-5-(trifluoromethyl)pyrrole-3-carbonitrile] | 1500 | ~300 | about 5 ppm |
| CCSCc1ccccc1OC(=O)NC [Ethiofencarb, 2-(Ethylthiomethyl)phenyl methylcarbamate] | 2100 | – | – |
